These results are taken from the OligoGym collection.

Bases are written 5' to 3'; sugars and linkages follow in the same order, as letters with counts (s phosphorothioate, o phosphodiester; PS: all linkages phosphorothioate). The collection does not say whether C is 5-methylated. l = locked nucleic acid (LNA); d = 2'-deoxy (DNA) A value given as a limit tells only on which side of the number the result lay.

The series addresses Tau. Put plainly: rat primary cortical neurons, FLIPR, 25 uM ASO.
As to “TATACAGTTGGCCCTACCAT (sugars l3 d14 l3, PS)”, the calcium oscillation score is 16.7 % of control.

Take “AACTCATCAACACCTTTTAA (sugars l3 d13 l4, PS)”: the calcium oscillation score was 70.8 % of control. For CTCCTGGTTTATGATG (sugars l3 d10 l3, PS), the calcium oscillation score is 31.3 % of control.

Regarding “TTGCTTTTCCCAATTAT (sugars l4 d11 l2, PS)”, the calcium oscillation score was 54.5 % of control. For “CACCACAGTCTTTTAAT (sugars l4 d10 l3, PS)” the value was 73.7 % of control; for “GAAGTCCCGAGCCAAAGCCG (sugars l3 d14 l3, PS)”, 5.18 % of control; for “CGTCCCAGCGTGATCTTCCA (sugars lldllddddddddddlldll, PS)”, 59.6 % of control. TGGATATAGTTAAGGC (sugars l4 d9 l3, PS): the calcium oscillation score was 107 % of control. To “TCCAGCCATATTTCAACTCT (sugars l3 d14 l3, PS)” belongs 45.2 % of control.

In the case of AAGCAATAGCAAACA (sugars l3 d9 l3, PS), the calcium oscillation score was 142 % of control. Consider “ATGACATTTTAAACCCC (sugars l3 d11 l3, PS)”, for which the calcium oscillation score was 54.9 % of control. Take “CTCCAATTTTAAACTTAA (sugars l4 d10 l4, PS)”: the calcium oscillation score was 69 % of control. For “CCTTGATCATATTTGTGGCA (sugars l3 d14 l3, PS)”, the calcium oscillation score is 28.6 % of control.

As for “CCATTTTCCATATAATTTTA (sugars l3 d14 l3, PS)”, the calcium oscillation score is 56.3 % of control.

On to “TTACCATCCTATCTTCTA (sugars l2 d13 l3, PS)”, for which the calcium oscillation score is 90.3 % of control. “TCTCAAAAATCAACGCC (sugars l4 d10 l3, PS)”: the calcium oscillation score is 94.5 % of control. Regarding TATTTACACTGTCCTTT (sugars l4 d9 l4, PS), the calcium oscillation score is 52.1 % of control.

In the case of CTTCAGTCCTAATCCT (sugars l3 d10 l3, PS), the calcium oscillation score is 95.8 % of control. Regarding “TAACTCAAATCAATTCTCAT (sugars l4 d12 l4, PS)”, the calcium oscillation score is 63.9 % of control. For “TACCAATTATCTTTAAATTC (sugars l4 d12 l4, PS)”, the calcium oscillation score was 64.4 % of control. In the case of “ATCACAAACCCTGCTTGGCC (sugars l3 d14 l3, PS)”, the calcium oscillation score was 55.2 % of control. As to CGTGGTCTGTCTTGGC (sugars l3 d10 l3, PS), the calcium oscillation score is 19 % of control. Regarding “CCCATTCAGATCTATCC (sugars l2 d13 l2, PS)”, the calcium oscillation score was 102 % of control.

As to “CAATCCTAAACAATGCC (sugars l2 d11 l4, PS)”, the calcium oscillation score is 41.8 % of control. Take CACCTTGCTCAGGTCA (sugars l3 d10 l3, PS): the calcium oscillation score was 134 % of control.

On to “ATATTGAACTCACCCAC (sugars l2 d11 l4, PS)”, for which the calcium oscillation score was 54.3 % of control. As to AACTTCTAATTTAGTC (sugars l4 d8 l4, PS), the calcium oscillation score was 81.9 % of control. For the sequence “CCCAGCGTGATCTTCCATCA (sugars lldllddddddddddlldll, PS)”, the calcium oscillation score is 100 % of control. On to GCGCAGGCGCGAGCAG (sugars l3 d10 l3, PS), for which the calcium oscillation score was 0 % of control.

For the sequence “TTATTTCCAAATTCACTTTT (sugars l3 d14 l3, PS)”, the calcium oscillation score was ≥ 200 % of control. For “TATTTCCAAATTCACTTTTA (sugars l4 d11 l5, PS)” the value was 172 % of control; for “ACTTTATTTCCAAATTCACTTTTAC (sugars ldllddddddddddddddddllldl, PS)”, 76.7 % of control; for “TTCTCACCAAACCCAGA (sugars l3 d12 l2, PS)”, 57.8 % of control. In the case of “CTTTTGAACCCATTCCAC (sugars l3 d13 l2, PS)”, the calcium oscillation score was 110 % of control. For TACATGCGTCCTTT (sugars l3 d8 l3, PS) the value was 91.8 % of control; for CACCTTTTCATGTTAAA (sugars l4 d9 l4, PS), 97.5 % of control. For “TCCCCCAAAATATCTCA (sugars l2 d12 l3, PS)” the value was 87.1 % of control; for GTGGCGGTGACTGCGA (sugars l3 d10 l3, PS), 62.6 % of control. For “TCACCACTTTAATCTGCC (sugars l2 d14 l2, PS)”, the calcium oscillation score is 69 % of control. Turning to “CATGAGCACTAACTCTAAGT (sugars l3 d14 l3, PS)”, the calcium oscillation score was 47.6 % of control. For “ACCCCGAATTTACACCC (sugars l1 d14 l2, PS)” the value was 86.2 % of control; for “TCGAAACCAAGGTCCCACCA (sugars l3 d14 l3, PS)”, 28.2 % of control. Take “GCCTTACTTTCTACTCAA (sugars l2 d13 l3, PS)”: the calcium oscillation score was 53.9 % of control. “TAAGTGATTAACCAATTAAC (sugars l3 d14 l3, PS)”: the calcium oscillation score is 27.2 % of control. As to CCCCAGACCATCAATT (sugars l2 d12 l2, PS), the calcium oscillation score was 57.7 % of control. For “ACCACATTATCATCCATT (sugars l2 d12 l4, PS)” the value was 55.7 % of control. For the sequence “ATTTCCAAATTCACTTTTAC (sugars llddldldddddddddllll, PS)”, the calcium oscillation score was 143 % of control. For “CCCACATTTGCAAACCAC (sugars l2 d14 l2, PS)” the value was 50.5 % of control.

Regarding CCAGATTCCCCAACTC (sugars l2 d12 l2, PS), the calcium oscillation score was 73.3 % of control. In the case of “GAACAGGAGAGCCATTTCCC (sugars l3 d14 l3, PS)”, the calcium oscillation score is 7.14 % of control. For GTGATATTGTCCAGGG (sugars l3 d10 l3, PS) the value was 14.8 % of control; for AACATCATGTCACACA (sugars l4 d8 l4, PS), 56.3 % of control. With “AGTTCCCACAATTCCTAC (sugars l2 d13 l3, PS)”, the calcium oscillation score was 50.4 % of control. Regarding “GGCGAGTCTACCATGTCGAT (sugars l3 d14 l3, PS)”, the calcium oscillation score is 91.5 % of control. As to CGTTCTCGCGGAAGGT (sugars l3 d10 l3, PS), the calcium oscillation score was 13 % of control. As to TAGTCACTCTGGTG (sugars l3 d8 l3, PS), the calcium oscillation score is 81.9 % of control. Consider CCTTTGAAAGTCCTTT (sugars l2 d12 l2, PS), for which the calcium oscillation score is 96.4 % of control. To “CTACTTTATTCCCTTAAC (sugars l4 d11 l3, PS)” belongs 91.3 % of control. To TGTCGATGCTGCCGGT (sugars l3 d10 l3, PS) belongs 34.5 % of control. With “ATTTCCAAATTCACTTTTAC (sugars llldldddddddddldldll, PS)”, the calcium oscillation score is 123 % of control.

Turning to “TTTGAAGTCCCGAGCCAAAG (sugars l3 d14 l3, PS)”, the calcium oscillation score is 0 % of control. To ATCCATTAATTTAGCC (sugars l3 d10 l3, PS) belongs 76.7 % of control.

For TGTCGATGCTGCCG (sugars l3 d8 l3, PS), the calcium oscillation score is 52.2 % of control. As to “CTCACTTTACACATTAAATT (sugars l4 d12 l4, PS)”, the calcium oscillation score is 59.8 % of control.

Regarding “GGAGGCAGACACCTCGTCAG (sugars l3 d14 l3, PS)”, the calcium oscillation score is 51.8 % of control.

Take “ATCATTTTTTATTCATAACT (sugars l4 d12 l4, PS)”: the calcium oscillation score is 53.4 % of control. In the case of “CCAAACTTTTACTCTGA (sugars l4 d10 l3, PS)”, the calcium oscillation score was 44.5 % of control. In the case of AATTATTTACACTGTCC (sugars l4 d9 l4, PS), the calcium oscillation score was 55.6 % of control. As for AGCAGAGGAACGTGTG (sugars l3 d10 l3, PS), the calcium oscillation score is 11.1 % of control. On to “CCCACCCAAACTCCAAGT (sugars l2 d13 l3, PS)”, for which the calcium oscillation score was 69.3 % of control.

For “CCAGGGACGTGGGTGATATT (sugars l3 d14 l3, PS)”, the calcium oscillation score was 0 % of control. For GATTAACCAATTAACC (sugars l3 d10 l3, PS) the value was ≥ 200 % of control; for AGCGTGATCTTCCATC (sugars l3 d10 l3, PS), 101 % of control. With “CCTCCACCCTTACACAT (sugars l2 d13 l2, PS)”, the calcium oscillation score is 55.6 % of control. For the sequence GTCACCACTTTAATCT (sugars l4 d9 l3, PS), the calcium oscillation score was 85.3 % of control. Take “CAGATTCCCCAACTCACA (sugars l2 d14 l2, PS)”: the calcium oscillation score is 71.5 % of control. With “ATTTTTACCAATTTGCC (sugars l2 d11 l4, PS)”, the calcium oscillation score is 57 % of control. Regarding “CCTTTTCTACTCTACTCT (sugars l3 d13 l2, PS)”, the calcium oscillation score is 63.3 % of control. With GTCTGGCATGGGCAC (sugars l3 d9 l3, PS), the calcium oscillation score was 62.9 % of control. Turning to “TCCACTTAGACACTCTT (sugars l2 d11 l4, PS)”, the calcium oscillation score is 50 % of control. As for “ATACTCAAATTCTTCCTTT (sugars l3 d12 l4, PS)”, the calcium oscillation score is 74 % of control. As for TAATCCTGTGCTTCA (sugars l3 d9 l3, PS), the calcium oscillation score was 86.7 % of control.

In the case of “CTTTATTTCCAAATTCACT (sugars l5 d9 l5, PS)”, the calcium oscillation score is 127 % of control.

“TTATTTCCAAATTCACTTTT (sugars l2 d2 l2 d10 l4, PS)”: the calcium oscillation score was 123 % of control. For “ATTCCACACATAAACAAACA (sugars l4 d12 l4, PS)”, the calcium oscillation score is 63.8 % of control. In the case of “CCAGCGTGATCTTCCATCAC (sugars l4 d11 l5, PS)”, the calcium oscillation score was 124 % of control. For “TTCTCAAGTCTCTTTAA (sugars l3 d11 l3, PS)” the value was 70.7 % of control; for “TGTAGACTATTTGCACACTG (sugars l3 d14 l3, PS)”, 7.41 % of control; for “CATGCAGTTTATTCCTGGCA (sugars l3 d14 l3, PS)”, 6.04 % of control. For the sequence GTAGACTATTTGCAC (sugars l3 d9 l3, PS), the calcium oscillation score was 95.2 % of control. With CAGTAACATCCATTTC (sugars l4 d8 l4, PS), the calcium oscillation score was 87.6 % of control. To “AAAACATTCTCACCAAACCC (sugars l4 d14 l2, PS)” belongs 83.5 % of control; to “CTTTATTCCCTTAACAATAT (sugars l3 d14 l3, PS)”, 74.6 % of control. To “TCAATTTGGAAAGATGAAAT (sugars l3 d14 l3, PS)” belongs 0 % of control. In the case of CCTTAAAGCTCCAACA (sugars l4 d10 l2, PS), the calcium oscillation score is 94.6 % of control.
